Experimental data: paper PMC6273433, “Design, Synthesis and Cytotoxicity of Novel Dihydroartemisinin-Coumarin Hybrids via Click Chemistry” (Molecules, 2016)
Like-named read-outs stand apart in the source and are kept apart here.

Legend:
[1] = test system: MDA-MB-231 (human breast carcinoma cell line, CA IX negative); test: MTT cytotoxicity assay, MDA-MB-231 under anoxia or normoxia; assay type: cell-based; settings: for IC50: Homo sapiens; for MDA-MB-231 Value = IC50(normoxia)/IC50(anoxia): MDA-MB-231, activity promotion under anoxia, >100 set as 100
Procedure: (§1) We focused our attention on the cytotoxicity of the four series of newly-synthesized compounds (10a–e, 11a–e, 12a–e, and 13a–e) under normoxic or anoxic conditions.
(§2) The data was calculated by the Logit method and presented as IC50 values in Table 1.
(§3) All of the newly-synthesized compounds were screened for in vitro cytotoxicity by MTT assay. The exponentially-growing MRC-5, HCT-116, MDA-MB-231, and HT-29 cells were allowed to grow until 80% confluency, the culture medium was discarded, digested with trypsin, separated centrifugally, then fresh culture medium was added and blown gently into single-cell suspension. Then, the cell suspension was seeded into each well of 96-well microculture plates at a concentration of 1.5 × 10^3–3 × 10^3 cells/well.
(§4) The cells were incubated with 50 μL of 2 mg/mL MTT solution for 4 h in a humidified incubator. The supernatant was discarded, and the media were then replaced with 200 μL of dimethyl sulfoxide to dissolve the purple colored formazan crystals formed in the wells, and their absorbances were measured at 492 nm with a microplate reader (Synergy-HT, BioTek Instruments, Winooski, VT, USA); 200 μL DMSO was set as the blank control.
(§5) The anoxia condition was achieved by placing cells in a sealed hypoxia incubator chamber (Catalog Number 27310, Stemcell Technologies, Inc., Vancouver, BC, Canada) filled with 5% CO2 and 95% N2.

[2] = test system: HT-29 (human colon carcinoma cell line, overexpresses high amounts of CA IX); test: MTT cytotoxicity assay, HT-29 under anoxia or normoxia; assay type: cell-based; settings: for HT-29 Value = IC50(normoxia)/IC50(anoxia): HT-29, activity promotion under anoxia; for IC50: Homo sapiens
Procedure: as §1, §2, §3, §4, §5

[3] = test system: HCT-116 (human colorectal cancer cell line); test: MTT cytotoxicity assay, HCT-116 under anoxia or normoxia; assay type: cell-based; settings: for HCT-116 Value = IC50(normoxia)/IC50(anoxia): HCT-116, activity promotion under anoxia, >100 set as 100; for IC50: Homo sapiens
Procedure: as §1, §2, §3, §4, §5

[4] = test system: MRC-5 (human fetal lung fibroblast cells, normal lung cell); test: MTT cytotoxicity assay, MRC-5 normal cells; assay type: cell-based; settings: MRC5, MRC-5, normoxia, 96 h MTT
Procedure: as §1, §2, §3, §4

[5] = MTT cytotoxicity assay, summary statements over all cell lines; assay type: cell-based; settings: human, MRC-5, HCT-116, MDA-MB-231 and HT-29 cells; 96 h MTT assay, four cell lines, normoxic or anoxic
Procedure: as §1, §2, §3, §4, §5

[6] = MDA-MB-231, anoxia 24 h then normoxia 72 h, MTT, read-out: IC50 MDA-MB-231 Anoxia
[7] = MDA-MB-231, normoxia, 96 h MTT, read-out: IC50 MDA-MB-231 Normoxia
[8] = HT-29, anoxia 24 h then normoxia 72 h, MTT, read-out: IC50 HT-29 Anoxia
[9] = HT-29, normoxia, 96 h MTT, read-out: IC50 HT-29 Normoxia
[10] = HCT-116, anoxia 24 h then normoxia 72 h, MTT, read-out: IC50 HCT-116 Anoxia
[11] = HCT-116, normoxia, 96 h MTT, read-out: IC50 HCT-116 Normoxia

melting point | SMILES | IC50 [1, 6] | IC50 [1, 7] | HT-29 Value = IC50(normoxia)/IC50(anoxia) [2] | IC50 [2, 8] | IC50 [2, 9] | HCT-116 Value = IC50(normoxia)/IC50(anoxia) [3] | IC50 [3, 10] | IC50 [3, 11] | IC50 [4] | MDA-MB-231 Value = IC50(normoxia)/IC50(anoxia) [1] | IC50 at 96 h [5]
84 to 86 °C | Cc1c(C)c2ccc(OCc3cn(CCO[C@H]4O[C@@H]5O[C@@]6(C)CC[C@H]7[C@H](C)CC[C@@H]([C@H]4C)[C@@]57OO6)nn3)cc2oc1=O [12c, 7-(1-(2-(10β-Dihydroartemisininoxy)ethyl)-1H-1,2,3-triazol-4-yl)methoxy-3,4-dimethyl-2H-chromen-2-one] | 33.2 µM | > 100 µM | 6.04 | 2.87 µM | 17.3 µM | 1.33 | 12.1 µM | 16 µM | 33.8 µM |  | 
76 to 78 °C | Cc1c(Cl)c(=O)oc2cc(OCc3cn(CCO[C@H]4O[C@@H]5O[C@@]6(C)CC[C@H]7[C@H](C)CC[C@@H]([C@H]4C)[C@@]57OO6)nn3)ccc12 [12d, 3-Chloro-7-(1-(2-(10β-dihydroartemisininoxy)ethyl)-1H-1,2,3-triazol-4-yl)methoxy-4-methyl-2H-chromen-2-one] | 43.5 µM | > 100 µM | 6.16 | 3.63 µM | 22.4 µM | 2.71 | 5.86 µM | 15.9 µM | 62.3 µM | 2.30 | 
71 to 73 °C | CCOC(=O)c1cc2ccc(OCc3cn(CCO[C@H]4O[C@@H]5O[C@@]6(C)CC[C@H]7[C@H](C)CC[C@@H]([C@H]4C)[C@@]57OO6)nn3)cc2oc1=O [12e, Ethyl 2-oxo-7-(1-(2-(10β-dihydroartemisininoxy)ethyl)-1H-1,2,3-triazol-4-yl)methoxy-2H-chromene-3-carboxylate] | 65.1 µM | > 100 µM | 1.88 | 20.8 µM | 39 µM | 1.62 | 35.7 µM | 57.9 µM | 69.5 µM | 1.54 | 
75 to 77 °C | Cc1cc(=O)oc2cc(OCc3cn(CCCO[C@H]4O[C@@H]5O[C@@]6(C)CC[C@H]7[C@H](C)CC[C@@H]([C@H]4C)[C@@]57OO6)nn3)ccc12 [13a, 7-(1-(3-(10β-Dihydroartemisininoxy)propyl)-1H-1,2,3-triazol-4-yl)methoxy-4-methyl-2H-chromen-2-one] | 36.1 µM | > 100 µM | 4.30 | 6.4 µM | 27.5 µM | 2.95 | 9.65 µM | 28.5 µM | 26.2 µM | 2.77 | 
69 to 71 °C | C[C@H]1[C@@H](OCCCn2cc(COc3ccc4c(C(F)(F)F)cc(=O)oc4c3)nn2)O[C@@H]2O[C@@]3(C)CC[C@H]4[C@H](C)CC[C@@H]1[C@@]24OO3 [13b, 7-(1-(3-(10β-Dihydroartemisininoxy)propyl)-1H-1,2,3-triazol-4-yl)methoxy-4-trifluoromethyl-2H-chromen-2-one] | 26.6 µM | > 100 µM | 3.74 | 5.31 µM | 19.8 µM | 7.43 | 2.75 µM | 20.4 µM | 21.4 µM | 3.76 | 
68 to 70 °C | Cc1c(C)c2ccc(OCc3cn(CCCO[C@H]4O[C@@H]5O[C@@]6(C)CC[C@H]7[C@H](C)CC[C@@H]([C@H]4C)[C@@]57OO6)nn3)cc2oc1=O [13c, 7-(1-(3-(10β-Dihydroartemisininoxy)propyl)-1H-1,2,3-triazol-4-yl)methoxy-3,4-dimethyl-2H-chromen-2-one] | 4.17 µM | 59.6 µM | 4.23 | 2.8 µM | 11.9 µM | 8.95 | 2.13 µM | 19.1 µM | 27.8 µM | 14.29 | 
71 to 73 °C | Cc1c(Cl)c(=O)oc2cc(OCc3cn(CCCO[C@H]4O[C@@H]5O[C@@]6(C)CC[C@H]7[C@H](C)CC[C@@H]([C@H]4C)[C@@]57OO6)nn3)ccc12 [13d, 3-Chloro-7-(1-(3-(10β-Dihydroartemisininoxy)propyl)-1H-1,2,3-triazol-4-yl)methoxy-4-methyl-2H-chromen-2-one] | 3.62 µM | 72.5 µM | 1.87 | 4.68 µM | 8.76 µM | 41.38 | 0.43 µM | 18 µM | 31.5 µM | 20.03 | 
79 to 81 °C | CCOC(=O)c1cc2ccc(OCc3cn(CCCO[C@H]4O[C@@H]5O[C@@]6(C)CC[C@H]7[C@H](C)CC[C@@H]([C@H]4C)[C@@]57OO6)nn3)cc2oc1=O [13e, Ethyl 2-oxo-7-(1-(3-(10β-dihydroartemisininoxy)propyl)-1H-1,2,3-triazol-4-yl)methoxy-2H-chromene-3-carboxylate] | 25.9 µM | 53.7 µM | 2.22 | 7.09 µM | 15.7 µM | 3.65 | 17.6 µM | 64.3 µM | 27.2 µM | 2.07 | 
 | CC(=O)Nc1nnc(S(N)(=O)=O)s1 [AAZ, acetazolamide] |  |  |  |  |  |  |  |  |  |  | > 100 µM
